Measured values from publication PMC12339328, “Therapeutic effect and mechanism of gigantol on hyperuricemia” (Frontiers in Endocrinology, 2025).
Several values for one entry are separate records, joined by “and”; a condition that tells them apart may be missing. Identical values can stand only once.

How the values were obtained:
[1] = Pharmacokinetics in rats (LC-MS/MS, WinNonlin); conditions: for MRT inf: MRT(0-∞); for Cmax: C max; for Tmax: T max
Protocol: Whole blood was taken into heparinized tubes at predefined time points (2, 5, 10, 20, and 30 min, and 1, 2, 4, 6, 8, and 12 h) after administration, and plasma was separated by centrifugation and stored at −20°C until testing. […] Whole blood was taken into heparinized tubes at predefined time points (2, 5, 10, 20, and 30 min, and 1, 2, 4, 6, 8, and 12 h) after administration, and plasma was separated by centrifugation and stored at −20°C until testing. […] Pharmacokinetic parameters were calculated by using the pharmacokinetics software WinNonlin 8.1.

[2] = system: GLUT9; experiment: GLUT9 protein expression in HK-2 cells (Western blot); conditions: HK-2; 阳性 = allopurinol 100 µmol/L; replicates 1-3
[3] = system: XOD
[4] = system: OAT3; experiment: OAT3 protein expression in kidney of HUA mice (Western blot); conditions: allopurinol 10 mg/kg, p > 0.05
[5] = system: OAT1; experiment: OAT1 protein expression in kidney of HUA mice (Western blot); conditions: allopurinol 10 mg/kg, p > 0.05
[6] = system: Caspase-1; experiment: Caspase-1 protein expression in HK-2 cells (Western blot); conditions: HK-2; 阳性 = allopurinol 100 µmol/L; replicates 1-3
[7] = system: GLUT9; experiment: GLUT9 protein expression in kidney of HUA mice (Western blot); assay type: in vivo; conditions: allopurinol 10 mg/kg, p > 0.05
[8] = system: OAT3; experiment: OAT3 protein expression in HK-2 cells (Western blot); conditions: HK-2; 阳性 = allopurinol 100 µmol/L; replicates 1-3
[9] = system: ASC; experiment: ASC protein expression in HK-2 cells (Western blot); conditions: HK-2; 阳性 = allopurinol 100 µmol/L; replicates 1-3
[10] = system: XOD; conditions: HUA cell model; allopurinol 100 μmol/L; vs model; p < 0.001
[11] = system: OAT1; experiment: OAT1 protein expression in HK-2 cells (Western blot); conditions: HK-2; 阳性 = allopurinol 100 µmol/L; replicates 1-3
[12] = system: NLRP3; experiment: NLRP3 protein expression in HK-2 cells (Western blot); conditions: HK-2; 阳性 = allopurinol 100 µmol/L; replicates 1-3
[13] = Sprague-Dawley, rat, plasma, iv, 5 mg/kg, rats, allopurinol intravenous 5 mg/kg, Average
[14] = Sprague-Dawley, rat, plasma, iv, 5 mg/kg, rats, allopurinol intravenous 5 mg/kg, individual rats
[15] = Sprague-Dawley, rat, plasma, po, 50 mg/kg, rats, allopurinol gavage 50 mg/kg, Average
[16] = Sprague-Dawley, rat, plasma, po, 50 mg/kg, rats, allopurinol gavage 50 mg/kg, individual rats
[17] = rats, allopurinol gavage 50 mg/kg, individual rats, 50 mg/kg
[18] = rats, allopurinol intravenous 5 mg/kg, individual rats, 5 mg/kg

Oc1ncnc2[nH]ncc12 [allopurinol]
AUC(0-t) ([1]; Sprague-Dawley, rat, plasma, iv, 5 mg/kg, AUC(0-t), rats, allopurinol intravenous 5 mg/kg, Average): 0.179 µg·h/mL | AUC(0-inf) [1, 13]: 0.209 µg·h/mL | AUC(0-inf) [1, 14]: 0.17 µg·h/mL | C0 ([1]; Sprague-Dawley, rat, plasma, iv, 5 mg/kg, C 0, rats, allopurinol intravenous 5 mg/kg, Average): ~0.225 µg/mL | C0 ([1]; Sprague-Dawley, rat, plasma, iv, 5 mg/kg, C 0, rats, allopurinol intravenous 5 mg/kg, individual rats): 0.169 µg/mL | MRT inf [1, 13]: 0.79 h | MRT inf [1, 14]: 0.73 h | bioavailability ([1]; Sprague-Dawley, rat, plasma, oral, F (absolute bioavailability), rats, allopurinol gavage 50 mg/kg vs intravenous 5 mg/kg): ~314% | AUC(0-t) ([1]; Sprague-Dawley, rat, plasma, po, 50 mg/kg, AUC(0-t), rats, allopurinol gavage 50 mg/kg, Average): 6.47 µg·h/mL | AUC(0-t) ([1]; Sprague-Dawley, rat, plasma, po, 50 mg/kg, AUC(0-t), rats, allopurinol gavage 50 mg/kg, individual rats): 6.29 µg·h/mL | AUC(0-inf) [1, 15]: ~6.58 µg·h/mL | AUC(0-inf) [1, 16]: 6.43 µg·h/mL | Cmax [1, 15]: ~1.35 µg/mL | Cmax [1, 16]: 1.31 µg/mL | MRT inf [1, 15]: 2.5 h | MRT inf [1, 16]: 2.06 h | Tmax [1, 15]: 1 to 2 h | Tmax [1, 16]: 2 h | V/F ([1]; rats, allopurinol gavage 50 mg/kg, Average): 14.28 L/kg | T max ([1]; rats, allopurinol gavage 50 mg/kg, Average, 50 mg/kg): 1.33 h | AUC(0-t) [1, 17]: 6,239.00 h·µg/L and 6,870.26 h·µg/L | AUC(0-∞) [1, 17]: 6,374.71 h·µg/L and 6,922.57 h·µg/L | C max [1, 17]: 1,440.00 µg/L and 1,310.00 µg/L | MRT(0-∞) [1, 17]: 2.68 h and 2.75 h | V/F [1, 17]: 15.75 L/kg and 15.77 L/kg and 11.31 L/kg | V ([1]; rats, allopurinol intravenous 5 mg/kg, Average): 19.62 L/kg | AUC(0-t) [1, 18]: 0.18621 µg·h/mL and 0.22515 µg·h/mL | AUC(0-∞) [1, 18]: 207.21 µg·h/L and 250.23 µg·h/L | C0 [1, 18]: 0.22322 µg/mL and 0.2817 µg/mL | MRT(0-∞) [1, 18]: 0.81 h and 0.83 h | V [1, 18]: 20.68 L/kg and 20.60 L/kg and 17.58 L/kg | GLUT (GLUT9) protein expression, band value [2]: 146.392 and 138.006 and 144.372 | xod protein expression, band value ([3]; AML12, 阳性 = allopurinol 100 µmol/L, replicates 1-3): 155.965 and 209.523 and 140.271 | XOD protein expression in AML12 cells ([3]; HUA cell model, allopurinol 100 µmol/L, vs model group): significantly downregulate | OAT3 protein expression in kidney [4]: did not show significant effects | OAT1 protein expression in kidney [5]: did not show significant effects | CASPASE protein expression, band value [6]: 147.442 and 190.729 and 189.372 | GLUT9 protein expression in kidney [7]: did not show significant effects | OAT3 protein expression, band value [8]: 160.43 and 183.946 | asc protein expression, band value [9]: 163.648 and 185.065 and 186.261 | XOD activity in AML12 cells [10]: significantly downregulate | OAT1 protein expression, band value [11]: 174.983 and 217.222 and 169.712 | NLRP3 protein expression, band value [12]: 163.939 and 177.621 and 186.105
